Each structure is given as a SMILES string.

The subject of experiment [1] is RAD18. Kind of experiment: RAD18 immunoprecipitation and immunoblotting in DTPs. Type of experiment: cell-based. To be noted: erlotinib 1 μM, 2-9 days. The protocol: FIGS. 3A-G. AXL and RAD18 are functionally linked. (B) PC9 cells were treated with erlotinib (1 μM), or DMSO and RNA was subjected to real time PCR. (C) Transcriptomic data corresponding to 506 patients with lung adenocarcinoma were used to generate an expression correlogram of 19 DNA damage response genes. Pearson correlation coefficients are indicated in each square (see scale code). (D) Parental and RAD18 knockout cells were treated for 9 days with a TKI. Fractions of surviving DTPs are shown. (E) Naïve and RAD18-knockout cells were probed using anti-AXL or anti-RAD18 antibodies. Thereafter, the cells were processed for proximity ligation analysis (red signals). Representative images and PLA quantification are shown. Bar, 20 μm. (F) Cells were treated for 2-9 days with erlotinib (1 μM) or H2O2 (40 μM). Extracts were subjected to immunoprecipitation with an anti-RAD18 or control antibody and immunoprecipitates were immunoblotted. (G) Naïve and AXL-overexpressing cells, along with PC9ER cells, were treated with erlotinib (1 μM). Genomic DNA was isolated after 9 days and the T790M point mutation was determined using digital PCR. Shown are fraction of T790M in cellular DNA. Data are means ±SEM (4 experiments). […]
For orientation: Immunoblotting shows a protein as a band on a membrane.

The test system of experiment [2] is AXL-overexpressing tumors. Kind of experiment: Whole exome sequencing, untreated vs TKI-treated relapsing tumors. Type of experiment: in vivo, mice. As to the method: (§1) Whole exome sequencing: Genomic DNA was isolated using PureLink™ Genomic DNA Mini Kit (Cat# K182002). The qualtiy of the DNA was checked by agarose gel ecltrophoresis and Qubit dsDNA HS Assay kit (Thermo Fisher Scientific). Exome sequencing libraries were prepared according to the manufacturer's instructions (Twist Human core exome kit+RefSeq Panel). Input gDNA (50 ng) from each sample was processed for enzymatic fragmentation, subsequent end repair, and dA-tailing to generate dA-tailed DNA fragments. Twist Universal Adapters were ligated to the dA-tailed DNA fragments, and purified to generate gDNA libraries ready for index introduction through amplification. A gDNA library adapted with Twist CDI primers was amplified and purified. The quality of the amplified library was confirmed using capillary electrophoresis (Bioanalyzer, Agilent). Prior to hybridization, the volume of each library was adjusted using the respective concentration of each Amplified Indexed Library. Ten libraries were multiplexed by 150 ng to give a total mass of 1500 ng. The pre-hybridization solution containing library, probes, RefSeq Panel and blockers was dried using a SpeedVac system and low heat. 0.020 ml of the fast hybridization mix was added to the dried pre-hybridization solution, and then 0.030 ml hybridization enhancer was added on top of the pre-hybridization solution. The mixture was incubated for 5 min at 95° C. and later heated for 2 hours at 60° C. in a thermal cycler (Fast Hybridization). Streptavidin Binding Beads (100 μl) were washed three times with 0.2 ml Fast Binding Buffer and re-suspended in 0.2 ml binding buffer. The hybridization mixture was added to the bead suspension and incubated for 30 min at RT with mixing. The beads were washed once, preheated in Fast Wash Buffer 1 for 5 min at 70° C., and three times with 0.2 ml of Wash Buffer2 for 5min at 48° C. DNA was eluted with 0.045 ml nuclease-free water (Streptavidin Binding Bead slurry). The captured library was amplified using PCR to enrich for fragments. The quality of the amplified libraries was verified by means of automated electrophoresis (Tapestation, Agilent). […]
(§2) Alignment and variant calling: Sequence QC was done through FastqQC 0.11.5 (Andrews 2015). Reads were mapped to human reference genome sequence (hg19; NCBI GRCh37) using bwa 0.7.12 (H. Li and Durbin 2009). […]
(§3) Animal experiments: All animal studies were approved by our institutional board and they were performed in accordance with the guidelines of the Institutional Animal Care and Use Committee (IACUC). […] Tumor volume was estimated using vernier caliper measurements of the longest axis, a/mm, and the perpendicular axis, b/mm Volumes were calculated in accordance with the equation V=(4 π/3)×(a/2)^2×(b/2). […]

The test system of experiment [3] is PC9 tumors. The description is as above. Type of experiment: in vivo, mice. As to the method:
as §1, §2, §3

In experiment [4] the test system is AXL. The experiment is described as follows: Re-analysis of AXL mRNA levels in a published patient dataset. Format: in vivo. Particulars: 23 patients, specimens prior to and after treatment, p<0.05. The source says: FIGS. 1A-G: Upregulation of AXL is essential for resistance and tolerance. (A) PC9 cells (2×10^6) were subcutaneously implanted in nude mice. […] Tumor volumes are presented (average ±SEM). (B) 3-4 mice from each group presented in A were euthanized when tumors reached 1,500 mm 3 Tumors were extracted and subjected to immunoblotting. Tubulin (TUB) served as the loading control. (C and D) AXL-overexpressing (C) and AXL-knockout PC9 cells (2×10^6, D), along with naïve cells, were subcutaneously implanted in mice. When tumors became palpable, mice were randomized and treated as in A. (E) Data were re-analyzed for AXL mRNA levels in 23 patients with EGFR+NSCLC. Specimens (total=53) were collected at several time points, prior to and after treatment with osimertinib. (F and G) AXL-overexpressing (OX; F) or AXL-knockout PC9 cells (KO; G), along with naïve cells, were untreated or treated with TKIs (1 or 3 μM). Drugs and media were refreshed on day 3 and 6. On day 9, remaining cells (DTPs) were fixed, stained and quantified. Averages±S.D. (triplicates) are shown.

For `C#Cc1cccc(Nc2ncnc3cc(OCCOC)c(OCCOC)cc23)c1` [erlotinib], in experiment [1], the “ubiquitination of PCNA” value is “increased ubiquitination of PCNA”. Also, the “ubiquitination of RAD18” value in experiment [1] is listed as “reduced ubiquitination of RAD18”. For the same molecule, the “increase in base alterations in relapsing tumors” value in experiment [2] was found to be 2.42 fold; in experiment [3], 2.31 fold.
Consider `C=CC(=O)Nc1cc(Nc2nccc(-c3cn(C)c4ccccc34)n2)c(OC)cc1N(C)CCN(C)C` [osimertinib], for which the entries for the “increase in base alterations in relapsing tumors” value in experiment [2] and in experiment [3] were 2.52 fold and 2.37 fold, respectively. In experiment [4], the “AXL mRNA levels in EGFR tumors of patients” value is “AXL up-regulation”.

Source of the values: patent publication US20240156959A1, “COMBINATION THERAPY FOR THE TREATMENT OF CANCER COMPRISING AN ANTl-EGFR ANTIBODY AND AN AXL-INHIBITOR” (Yeda Research and Development Co. Ltd., priority 2021, published 2024).
